# Where two headings read alike, the source gives them in different places.
# Experiments:
# Sp1 phosphorylation [1] = settings: NHDFs
# Sp1 phosphorylation [2] = settings: fibroblasts with wild-type ATM, one hour exposure
# [3] = type: cell-based, human; settings: U2OS, 10 μM ATM inhibitor, 200 μM H2O2
# [4] = system: Sp1 phosphorylation at serine 101; type: cell-based, human; settings: U2OS, 10 μM ATM inhibitor
# ATM = ATM (Homo sapiens, UniProt Q13315); settings: Hickson et al. 2004; cited from earlier work
# ATM, sequence (Q13315 whole entry): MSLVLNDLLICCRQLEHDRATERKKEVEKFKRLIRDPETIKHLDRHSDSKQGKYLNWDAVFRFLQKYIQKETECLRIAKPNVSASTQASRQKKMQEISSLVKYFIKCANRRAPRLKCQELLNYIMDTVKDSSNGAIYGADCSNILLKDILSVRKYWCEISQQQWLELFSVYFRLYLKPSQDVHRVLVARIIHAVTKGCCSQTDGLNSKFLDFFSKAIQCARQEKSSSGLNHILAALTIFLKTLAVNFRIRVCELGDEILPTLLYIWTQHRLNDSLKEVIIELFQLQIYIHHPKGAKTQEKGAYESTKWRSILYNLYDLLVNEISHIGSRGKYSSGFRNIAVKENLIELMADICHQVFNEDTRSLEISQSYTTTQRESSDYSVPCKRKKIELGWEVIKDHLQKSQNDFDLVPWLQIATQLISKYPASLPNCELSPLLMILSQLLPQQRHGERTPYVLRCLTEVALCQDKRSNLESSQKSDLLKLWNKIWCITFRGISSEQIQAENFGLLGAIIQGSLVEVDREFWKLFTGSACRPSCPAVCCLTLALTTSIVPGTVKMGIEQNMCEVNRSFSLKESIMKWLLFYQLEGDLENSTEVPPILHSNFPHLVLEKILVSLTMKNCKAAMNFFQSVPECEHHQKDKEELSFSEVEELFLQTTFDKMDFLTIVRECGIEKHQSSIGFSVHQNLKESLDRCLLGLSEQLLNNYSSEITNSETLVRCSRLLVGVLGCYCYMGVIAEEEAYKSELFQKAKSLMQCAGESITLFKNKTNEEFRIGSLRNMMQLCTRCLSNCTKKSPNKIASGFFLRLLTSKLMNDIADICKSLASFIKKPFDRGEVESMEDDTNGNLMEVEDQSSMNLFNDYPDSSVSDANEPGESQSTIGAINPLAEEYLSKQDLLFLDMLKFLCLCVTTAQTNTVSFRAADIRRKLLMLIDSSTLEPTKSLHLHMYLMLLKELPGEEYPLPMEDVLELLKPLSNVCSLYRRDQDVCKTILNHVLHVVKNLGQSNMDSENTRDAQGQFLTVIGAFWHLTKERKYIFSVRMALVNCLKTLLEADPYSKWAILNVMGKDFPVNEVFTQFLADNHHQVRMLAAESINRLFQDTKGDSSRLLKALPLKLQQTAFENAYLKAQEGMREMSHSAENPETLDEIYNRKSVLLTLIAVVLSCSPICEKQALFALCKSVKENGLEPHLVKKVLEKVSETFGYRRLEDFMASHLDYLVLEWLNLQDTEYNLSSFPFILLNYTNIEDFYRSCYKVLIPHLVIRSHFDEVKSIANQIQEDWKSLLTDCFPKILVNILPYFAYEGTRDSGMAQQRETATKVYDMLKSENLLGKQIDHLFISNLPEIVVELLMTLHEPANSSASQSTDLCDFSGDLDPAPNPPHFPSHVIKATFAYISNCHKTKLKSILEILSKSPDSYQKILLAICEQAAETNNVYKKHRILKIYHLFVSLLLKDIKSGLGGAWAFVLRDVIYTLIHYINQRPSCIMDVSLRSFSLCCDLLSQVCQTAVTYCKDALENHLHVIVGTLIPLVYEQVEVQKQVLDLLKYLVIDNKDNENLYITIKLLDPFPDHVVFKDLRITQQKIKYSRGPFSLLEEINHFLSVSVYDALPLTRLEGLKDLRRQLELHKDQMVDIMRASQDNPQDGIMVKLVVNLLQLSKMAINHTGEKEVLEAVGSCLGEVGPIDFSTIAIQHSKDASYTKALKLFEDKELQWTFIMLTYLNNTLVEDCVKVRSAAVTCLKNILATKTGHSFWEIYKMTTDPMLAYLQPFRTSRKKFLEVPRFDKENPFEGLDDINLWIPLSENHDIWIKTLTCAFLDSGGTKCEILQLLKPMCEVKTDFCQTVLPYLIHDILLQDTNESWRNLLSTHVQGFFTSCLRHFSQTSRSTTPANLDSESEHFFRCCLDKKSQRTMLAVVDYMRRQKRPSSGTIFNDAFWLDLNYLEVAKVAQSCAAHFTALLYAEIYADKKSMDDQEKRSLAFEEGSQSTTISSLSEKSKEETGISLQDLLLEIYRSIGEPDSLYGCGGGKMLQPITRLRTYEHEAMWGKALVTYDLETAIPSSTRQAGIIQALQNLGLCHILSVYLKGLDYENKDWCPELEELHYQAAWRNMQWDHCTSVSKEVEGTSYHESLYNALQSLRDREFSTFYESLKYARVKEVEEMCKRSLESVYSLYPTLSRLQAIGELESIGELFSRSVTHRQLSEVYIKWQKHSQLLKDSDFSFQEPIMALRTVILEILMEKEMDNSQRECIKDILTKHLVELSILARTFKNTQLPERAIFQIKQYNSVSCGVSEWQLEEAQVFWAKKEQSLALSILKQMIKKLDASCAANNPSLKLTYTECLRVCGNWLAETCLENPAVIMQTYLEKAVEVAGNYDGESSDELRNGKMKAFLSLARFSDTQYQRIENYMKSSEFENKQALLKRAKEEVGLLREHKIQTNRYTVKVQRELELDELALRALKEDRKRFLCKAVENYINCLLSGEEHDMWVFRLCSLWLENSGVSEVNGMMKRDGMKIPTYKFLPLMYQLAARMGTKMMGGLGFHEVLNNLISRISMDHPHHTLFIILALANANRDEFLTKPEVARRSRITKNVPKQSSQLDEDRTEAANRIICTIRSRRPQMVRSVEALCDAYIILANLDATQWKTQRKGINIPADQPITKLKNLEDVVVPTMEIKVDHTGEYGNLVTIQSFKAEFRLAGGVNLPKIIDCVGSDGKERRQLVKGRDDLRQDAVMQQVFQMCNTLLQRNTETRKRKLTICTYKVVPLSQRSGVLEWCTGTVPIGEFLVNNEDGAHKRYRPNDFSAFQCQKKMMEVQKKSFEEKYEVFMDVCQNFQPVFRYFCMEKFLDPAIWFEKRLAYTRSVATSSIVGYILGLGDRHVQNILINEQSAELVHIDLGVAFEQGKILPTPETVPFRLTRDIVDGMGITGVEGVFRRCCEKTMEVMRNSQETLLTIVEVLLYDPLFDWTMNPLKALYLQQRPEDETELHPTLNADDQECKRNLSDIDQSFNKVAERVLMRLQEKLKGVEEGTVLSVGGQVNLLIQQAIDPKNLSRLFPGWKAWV
# ATM kinase activity = experiment: Indirect immunofluorescence for γSp1^101 and phospho-ATMs1981 in UV-exposed U2OS cells; type: cell-based, human; settings: 0.5 J/m^2 UV, pre-treated with 10 μM KU55933
# Experimental: U2OS cells were plated onto glass coverslips 24-36 hours before treatment. […] U2OS cells were washed in ice-cold PBS twice and pre-extracted in 0.2% Triton X-100/30% ddH2O/20 mM PMSF in PBS for 5 minutes at 4° C. Cells were then washed with PBS and fixed in 2% Para-formaldehyde/3% sucrose in PBS for 10 minutes at room temperature. Cells were washed twice in PBS at room temperature then permeablized in 0.5% Triton X-100 in PBS for 5 minutes at 4° C. Cells were washed 2 times in room temperature PBST (0.1% Tween 20, 0.02% Sodium azide in PBS) and incubated in primary antibody overnight at 4° C., mouse monoclonal γH2AX (ser139, Upstate Biotechnology), diluted 1:1000 in PBST solution, mouse P-ATMser1981 (Cell Signalling, diluted 1:1000) or rabbit polyclonal γSp1^101 (diluted 1:500, 21st Century Biotechnology). Cells were washed in PBST three times followed by the addition of secondary antibody, AlexaFlour488 donkey anti-rabbit, diluted 1:1000 in PBST and AlexaFlour594 donkey anti-mouse antibody, diluted 1:1000 in PBST for 1 hours in the dark. Cells were washed 4 times with PBST. Slides were mounted using Vectashield mounting medium containing DAPI (Vector Labs).
# [5] = system: Phosphorylation of Sp1 and H2AX; experiment: Immunoblot of H2O2-induced Sp1 and H2AX phosphorylation in NHDFs pretreated with wortmannin or KU55933; type: cell-based, human; settings: 200 μM H2O2, pre-treatment with 10 μM KU55933
# U2OS cells = experiment: Clonogenic rescue experiment in Sp1-depleted U2OS cells exposed to H2O2; type: cell-based, human; settings: H2O2 for one hour, colonies counted after 11 days
# Experimental: In the case of the rescue experiment, U2OS cells were transfected with siRNA and replated 72 hours later. The cells were then transfected with WT Sp1 or Sp1-101A and 48 hours later cells were exposed to H2O2 and re-seeded onto 60 mm dishes. Colonies were fixed and stained in crystal violet 11 days after plating and then counted.
compound,measurement,setting,value
"OO [H2O2, hydrogen peroxide]",Time by which the 95 kDa form of Sp1 became the predominant species again,Sp1 phosphorylation [1]; 200 μM H2O2,≤ 8 h
same,Time of peak Sp1 phosphorylation,Sp1 phosphorylation [1]; 200 μM H2O2,one hour
same,Time to first observed Sp1 phosphorylation post-treatment,Sp1 phosphorylation [1]; 200 μM H2O2,15 min
same,H2O2 concentration at which 105 kDa becomes the major Sp1 species,Sp1 phosphorylation [1]; one hour exposure,200 µM
same,H2O2 concentration at which the Sp1 shift to 105 kDa is detected,Sp1 phosphorylation [1]; one hour exposure,50 µM
same,H2O2 concentration at which Sp1 was shifted completely to the 105 kDa form,Sp1 phosphorylation [2],25 µM
O=c1cc(-c2cccc3c2Sc2ccccc2S3)oc(N2CCOCC2)c1 [KU55933],Phosphorylation of H2AX,[3],diminished
same,Electromobility shift in Sp1 from the 95 kDa to 105 kDa form,[4]; 200 μM H2O2 for one hour,blocked
same,Phosphorylation of Sp1 at serine 101,[4]; 200 μM H2O2 for one hour,abolished
same,Overall electromobility shift of total Sp1,[4]; 30 J/m^2 UV for four hours,partial reduction
same,Phosphorylation of Sp1 at serine 101,[4]; 30 J/m^2 UV for four hours,abolished
same,ATM kinase activity,ATM,inhibited
same,ATM phosphorylation at serine 1981,ATM kinase activity,still phosphorylated
same,γSp1^101 immunofluorescence signal,ATM kinase activity,lack of γSp1^101
same,H2O2-induced phosphorylation of Sp1 and H2AX,[5],reduced but not abolished
"Sp1^S101A: exogenously expressed Sp1 mutant with serine 101 changed to Ala, not phosphorylated in response to damage",Colony survival in response to H2O2,U2OS cells,failed to rescue
"wild-type Sp1: exogenously expressed wild-type Sp1 (SEQ ID NO: 2) with HA-tag, transfected in pFLAG-CMV2",Colony survival in response to H2O2,U2OS cells,restored survival to the level observed with non-targeting RNAi

# Reference: patent publication US8476025B2, “ATM-dependent phosphorylation of Sp1 is involved in the cellular response to DNA damage and enhances cellular survival after DNA damage” (Philadelphia Health and Education Corporation, priority 2007, dated 2013)
